Data on two molecules can be found in article PMC11164811 (Investigational New Drugs, 2024).

Like-named read-outs stand apart in the source and are kept apart here.

The nature of data set [1]: Plasma pharmacokinetics of selumetinib and N-desmethyl selumetinib on day 1 of cycle 1. It counts as in vivo, human. The source says: Additional predose samples were collected on days 1 and 14 of cycle 2 and on days 1 and 14 of cycle 5.
(§1) No formal hypothesis testing was planned.

Data set [2] relates to patients with advanced or metastatic solid tumors. Nature of the data set: Dose-limiting toxicities during first 21 days, phase 1b MK-5618-001. Conditions: selumetinib twice daily 2 weeks on/1 week off in combination with pembrolizumab. The data set is classed as in vivo, human.
From the text: At least 3 patients were enrolled at each dose level; the modified toxicity probability interval (mTPI) design, with a target dose-limiting toxicity (DLT) rate of ~30%, was used to identify a potential maximum tolerated dose. Dose escalation and de-escalation decisions were based on the mTPI design and were dependent on the number of patients enrolled and number of DLTs observed at the particular dose level (Online Resource 1). Dose finding was considered complete after 14 patients were enrolled at any of the tested dose levels and the decision was made to stay at that dose level.
as §1
Any treatment-related toxicity that causes the patient to discontinue treatment during cycle 1 […]
Cardiac disorders including
• Absolute decrease in left ventricular ejection fraction >10% compared with baseline and below the institution’s lower limit of normal • Grade ≥3 left ventricular systolic dysfunction
• Other cardiac disorders grade ≥3
Vascular disorders including
• Grade ≥3 hypertension requiring >1 drug or more intensive therapy […]
assessment. […] The occurrence of any of the toxicities listed in this table was considered a dose-limiting toxicity if assessed by the investigator to be possibly, probably , or definitely related

`O=C(NOCCO)c1cc2nc[nH]c2c(F)c1Nc1ccc(Br)cc1Cl` [N-Desmethyl selumetinib, N-desmethyl selumetinib]: in data set [1] (human, in vivo), the “Observed t1/2, range across dose levels” value is 3.07 to 3.94 h.

For `Cn1cnc2c(F)c(Nc3ccc(Br)cc3Cl)c(C(=O)NOCCO)cc21` [Selumetinib, selumetinib], in data set [2], the “Maximum tolerable dose level” value is “exceeds 125 mg”. Besides, the half-life in data set [1] (human, in vivo, day 1 of cycle 1, selumetinib 50-125 mg, read-out: Observed t1/2, range across dose levels) was 2.82 to 3.82 h; in data set [1] (human, in vivo, plasma, day 1 of cycle 1, Selumetinib 125 mg + Pembrolizumab 200 mg, n = 11, geometric mean (% geometric CV), read-out: t1/2 (converted)) it was 2.82 h. Further, the “AUC0‒last” value in data set [1] (plasma, day 1 of cycle 1, Selumetinib 125 mg + Pembrolizumab 200 mg, n = 14, geometric mean (% geometric CV)) was 4430 (57.6) h · ng/mL.
